According to patent US8735446B2, “Vanillin acetals and sensory stimulant composition containing the same” (Takasago International Corporation, priority 2005, dated 2014):

Legend:
[1] = system: ten expert panelists; experiment: Sensory Evaluation 1: oral evaluation of 10 ppm aqueous solutions; format: in vivo, human; set-up: key to Instantaneous sensation: ⊚: very fast; ◯: fast; Δ: is somewhat slow; x: slow; conditions: for Instantaneous sensation / Intensity: oral evaluation, 10 ppm aqueous solution, warming sensation and pungent taste, average of ten panelists; for Intensity: scale 5 very strong, 4 strong, 3 weak, 2 very weak, 1 not able to feel
Procedure: Compound A and Compound C obtained in Example 1 and Example 3, respectively, were subjected to oral evaluation using 10 ppm aqueous solutions of them by ten expert panelists having 5 or more year experience, and an instantaneous sensation and an intensity of warming sensation and pungent taste were evaluated on the basis of the following evaluation criteria. On the sensory evaluation, 4-(l-methoxymethyl)-2-(3′-methoxy-4′-hydroxyphenyl)-1,3-dioxolan (Comparative compound A: the compound described in JP-A-8-225564) was used as a comparative compound. The evaluation results in the table show the average value of ten panelists.

[2] = system: skin; experiment: warm sensation and stimulating effect on the skin; format: in vivo, human

Row | SMILES | pungent and warming effect in the mouth [1] | Instantaneous sensation [1] | Intensity [1] | warm sensation and stimulating effect on the skin [2]
1 | CCCCC1COC(c2ccc(O)c(OC)c2)O1 (stereo not drawn) [Compound A, vanillin-1,2-hexylene glycol acetal] | strong pungent and warming effect in the mouth | ⊚ | 4.5 | strong warm sensation and stimulating effect on the skin
2 | COCC1COC(c2ccc(O)c(OC)c2)O1 (stereo not drawn) [Comparative compound A, 4-(l-methoxymethyl)-2-(3′-methoxy-4′-hydroxyphenyl)-1,3-dioxolan, reference compound] | strong pungent and warming effect in the mouth | Δ | 2.8 | strong warm sensation and stimulating effect on the skin
3 | CCCCOCC1COC(c2ccc(O)c(OC)c2)O1 (stereo not drawn) [Compound C, vanillin-1-butoxyglycerol acetal] | strong pungent and warming effect in the mouth | ⊚ | 4.2 | strong warm sensation and stimulating effect on the skin
